What was measured:
[1] = system: special operations veterans with combat and/or blast exposure; test: Functional MRI: resting-state functional connectivity and lag projection analysis; format: in vivo, human
Description: Functional magnetic resonance imaging (fMRI) was performed on the subjects enrolled in the study described in Example 1. Neuroimaging is a branch of medical imaging that focuses on the brain. It utilizes techniques of physics, optics, and mathematics to quantify brain structure and function. […] During resting, subjects are asked to do nothing and the aim is to observe the brain at rest. When the subject is asked to perform a task, the aim is to observe how the brain works in response to the task. Other magnetic resonance based imaging techniques include: anatomical, which measures cortical thickness, area, gyrification, and volume: arterial spin labelling, which quantitatively measures tissue perfusion, cerebral blood flow, where perfusion refers to the delivery of oxygen and nutrients to tissue by means of blood flow: and, diffusion tensor imaging, which measures diffusion of water through white natter, such as neural fiber tracts. fMRI can provide a series of images that form a film, as opposed to a single image obtained in MRI.
The human brain is a series of well-organized and optimized series of efficient networks. […] The functional connectivity networks evaluated in a region of interest in the brain included those identified in Table 2-1 of Example 2.
fMRI data was also analyzed to inspect activity patterns as a function of time. […]

[2] = orally administered to humans; possibly longer in poor CYP2D6 metabolizers; cited from earlier work
[3] = system: special operations veterans with combat and/or blast exposure; test: MRI-based predicted brain age (machine learning model); format: in vivo, human; conditions: for brain age estimate: baseline 40.89 years; for Brain age, Cohen's d / Brain age, Mean Difference: N 24
From the text: In another aspect, a method for slowing or reversing brain aging in a subject is provided. In an embodiment, the subject is a person a healthy individual or is a person with TBI or with TBI and PTSD or a person at risk of one or both of TBI and PTSD. The method comprises treating the subject with ibogaine, as described herein. Neuroimaging data can be used to predict chronological age in healthy individuals, using machine learning. Neuroimaging-derived age predictions have been explored in the context of different brain diseases (Cole, et al., NeuroImage, 163:115-124 (2017): Cole, et al., Trends in Neurosciences, 40(12):681 (2017))). By training models on healthy individuals, brain-based predictions of age can be made in independent clinical samples. If ‘brain-predicted age’ is greater than an individual's chronological age, this is thought to reflect some aberrant accumulation of age-related changes to the brain (Id.). […] A predictive model of normal ageing defined using machine learning in healthy individuals, based on magnetic resonance imaging-derived estimates of gray matter and white matter (Id.) was applied to the MRI images from the subjects enrolled in the study of Example 1. […] There was a significant reversal of brain age from baseline to one month after treatment. The mean decrease in brain age was 1.3 years (corrected p=0.03).
At baseline, the brain age estimate for the 24 subjects was 40.89 years. […] The average decrease in brain age from baseline one month after treatment was 1.4 years.

[4] = in vivo; cited from earlier work
[5] = contrast 1 wk post − 1 mo. post
[6] = contrast immediate post (~1 wk) − baseline
[7] = one month after treatment, 24 subjects

For `CCC1CC2CC3c4[nH]c5ccc(OC)cc5c4CCN(C2)C13` (centres unmarked) [ibogaine, Ibogaine], the “lag projection of BOLD fMRI in left orbitofrontal gyrus and inferior frontal gyrus” value ([1]; baseline vs about four days post treatment, paired T-test, fwec p<0.001) is listed as “relative slowing”, the “functional connection pairs in the brain networks reorganized (resting state functional connectivity)” value ([1]; within a few days after treatment, persisted to one-month post treatment) is listed as 22 and the half-life [2] is listed as “about 7.5 hours”. For the same compound, the “Brain age, contrast Estimate” value ([3]; Baseline & 1 wk. vs 1 mo., weights .5-.5-1) was 1.220 years, the “Brain age, contrast Estimate” value ([3]; Baseline vs. 1 wk and 1 mo., weights 1-.5-.5) was 0.892 years and the brain age estimate ([3]; about one week after treatment, 24 subjects) was 40.52 years. For the same compound, the “mean decrease in predicted brain age” value ([3]; baseline to one month after treatment, corrected p=0.03 (FIG. 19A)) was 1.3 years, the “Brain age, Cohen's d” value ([3]; contrast 1-mo. post − baseline) was −0.6137 and the “Brain age, Mean Difference” value ([3]; contrast 1-mo. post − baseline) was −1.408 Years. The “Brain age, Cohen's d” value [3, 5] was −0.4729, the “Brain age, Mean Difference” value [3, 5] was −1.031 Years and the “Brain age, Cohen's d” value [3, 6] was −0.2114. For the same compound, the “Brain age, Mean Difference” value [3, 6] was −0.3764 Years, the “average decrease in brain age from baseline” value [3, 7] was 1.4 years and the brain age estimate [3, 7] was 39.48 years. For the same compound, the “estimated brain age compared to accelerated intermittent theta burst stimulation (aiTBS)” value ([3]; one-month post treatment (FIG. 19D)) was “reducing in estimated brain age” and the “people who may suffer from cardiac arrest when treated” value [4] was “Approximately 1 in 300”.

Source: US20240415845A1, “Compositions of Iboga Alkaloids and Methods of Treatment” (priority 2022, published 2024)
